Test results: ChEMBL document CHEMBL4342486, “An Alkyne-functionalized Arginine for Solid-Phase Synthesis Enabling "Bioorthogonal" Peptide Conjugation” (ACS Med Chem Lett, 2020)

Key:
[1] = biological target: Neurotensin receptor type 1 (Homo sapiens, UniProt P30989); test: Displacement of [3H]UR-MK300 from human NTS1R expressed in human HT-29 cells incubated for 2 hrs by scintillation counting method; format: cell-based
[2] = Chemical stability of compound in PBS buffer at pH 7.4 at 100 uM incubated for 48 hrs by RP-HPLC analysis; format: physicochemical; settings: pH 7.4, 48 h
[3] = biological target: Neuropeptide Y receptor type 4 (Homo sapiens, UniProt P50391); test: Displacement of [3H]UR-KK200 from human Y4R expressed in CHO cells incubated for 90 mins by microbeta scintillation counting method; format: cell-based
Sequence of Neuropeptide Y receptor type 4 (P50391 whole entry): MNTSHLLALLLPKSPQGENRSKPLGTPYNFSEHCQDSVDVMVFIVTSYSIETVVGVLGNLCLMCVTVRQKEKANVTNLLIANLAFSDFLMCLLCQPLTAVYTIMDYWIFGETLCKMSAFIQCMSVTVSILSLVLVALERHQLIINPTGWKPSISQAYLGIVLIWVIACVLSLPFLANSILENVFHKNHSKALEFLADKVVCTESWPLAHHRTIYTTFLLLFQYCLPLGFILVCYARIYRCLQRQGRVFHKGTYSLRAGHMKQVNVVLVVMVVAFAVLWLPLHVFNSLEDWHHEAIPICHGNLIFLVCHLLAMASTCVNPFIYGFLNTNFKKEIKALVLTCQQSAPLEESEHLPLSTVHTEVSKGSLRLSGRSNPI

Sequence of Neurotensin receptor type 1 (P30989 whole entry): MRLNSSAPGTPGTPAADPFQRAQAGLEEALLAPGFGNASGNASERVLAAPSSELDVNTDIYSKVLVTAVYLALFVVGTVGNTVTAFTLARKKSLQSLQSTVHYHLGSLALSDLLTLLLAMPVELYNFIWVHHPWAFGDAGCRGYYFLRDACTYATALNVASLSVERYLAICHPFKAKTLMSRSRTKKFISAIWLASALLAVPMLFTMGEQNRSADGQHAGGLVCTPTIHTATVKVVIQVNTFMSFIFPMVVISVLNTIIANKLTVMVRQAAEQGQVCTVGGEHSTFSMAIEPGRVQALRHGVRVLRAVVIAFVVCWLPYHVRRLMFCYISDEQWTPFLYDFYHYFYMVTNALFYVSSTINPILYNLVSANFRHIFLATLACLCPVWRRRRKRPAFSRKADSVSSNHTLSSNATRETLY

| Ki ([1]; read-out: Ki) [nM] | Stability [2] | Ki [3] [nM] | Ki ([1]; read-out: pKi (converted)) [nM] | Compound |
| --- | --- | --- | --- | --- |
| 9.6 | – | – | 9.33 | C#CCCCCNC(=O)NC(=N)NCCC[C@H](NC(=O)[C@H](CCCNC(=N)N)NC)C(=O)N1CCC[C@H]1C(=O)N[C@@H](Cc1ccc(O)cc1)C(=O)N[C@H](C(=O)N[C@@H](CC(C)C)C(=O)O)C(C)(C)C |
| 4.2 | – | – | 4.07 | C#CCCCCNC(=O)NC(=N)NCCC[C@H](N)C(=O)N[C@@H](CCCNC(=N)N)C(=O)N1CCC[C@H]1C(=O)N[C@@H](Cc1ccc(O)cc1)C(=O)N[C@H](C(=O)N[C@@H](CC(C)C)C(=O)O)C(C)(C)C |

The next lines start with the molecule.

| Compound | Ki ([1]; read-out: Ki) [nM] | Stability [2] | Ki [3] [nM] | Ki ([1]; read-out: pKi (converted)) [nM] |
| --- | --- | --- | --- | --- |
| C#CCCCCNC(=O)NC(=N)NCCC[C@H](NC(=O)[C@@H](N)CCCNC(=N)N)C(=O)N1CCC[C@H]1C(=O)N[C@@H](Cc1ccc(O)cc1)C(=O)N[C@H](C(=O)N[C@@H](CC(C)C)C(=O)O)C(C)(C)C | 9.4 | – | – | – |
| CC(C)C[C@H](NC(=O)[C@@H](NC(=O)[C@H](Cc1ccc(O)cc1)NC(=O)[C@@H]1CCCN1C(=O)[C@H](CCCNC(=N)N)NC(=O)[C@@H](N)CCCNC(=N)NC(=O)NCCCCc1cn(CCCNC(=O)CCCCCN2/C(=C/C=C/C=C/C3=[N+](C)c4ccc5c(S(=O)(=O)[O-])cc(S(=O)(=O)O)cc5c4C3(C)C)C(C)(C)c3c2ccc2c(S(=O)(=O)O)cc(S(=O)(=O)O)cc32)nn1)C(C)(C)C)C(=O)O | 50 | Stable | – | – |
| CC(=O)N[C@@H](CCCNC(=N)NC(=O)NCCCCc1cn(CCCNC(=O)CCCCCN2/C(=C/C=C/C=C/C3=[N+](C)c4ccc5c(S(=O)(=O)[O-])cc(S(=O)(=O)O)cc5c4C3(C)C)C(C)(C)c3c2ccc2c(S(=O)(=O)O)cc(S(=O)(=O)O)cc32)nn1)C(=O)N[C@@H](Cc1ccc(O)cc1)C(=O)N[C@@H](CCCNC(=N)N)C(=O)N[C@@H](CC(C)C)C(=O)N[C@@H](CCCNC(=N)N)C(=O)N[C@@H](Cc1ccc(O)cc1)C(N)=O | – | Stable | 33 | – |
